Data on 47 compounds can be found in US6781000B1, “Alpha-ketoamide inhibitors of 20S proteasome” (CV Theurapeutics, Inc., priority 1998, dated 2004).

Where only a bound is given, the exact number is not on record here.

The assay has as its target T1, chymotrypsin-like activity of 20S proteasome (Bos taurus, UniProt Q2TBX6+Q32KL2).
T1 construct: was purified to homogeneity from bovine brain according to published methods; from tissue; host or cells: bovine brain
Nature of the assay: 20S proteasome chymotryptic activity inhibition assay (Suc-Leu-Leu-Val-Tyr-AMC cleavage). In kind it is biochemical. To be noted: 2 μg 20S proteasome from bovine brain, 50 μM fluorogenic substrate, 15 minutes at 37° C., pH7.5. On the procedure:
Compounds of this invention prepared according to the method of Example 1 were tested as follows. The 20S catalytic subunit of the proteasome (also known as the multicatalytic proteinase complex) was purified to homogeneity from bovine brain according to published methods (Wilk S. and Orlowski,M 1983, 40 842 J.Neurochem). The chymotryptic activity of the complex is measured by the increase in fluorescence following cleavage of the substrate peptide succinyl-leucine-leucine-valine-tyrosine-7-amino-4methyl coumarin. The standard in vitro assay consists of 2 μg 20S proteasome, 0.1-100 μg/ml proteasome inhibitor in 200 μl 50 mM HEPES, containing 0.1% sodium dodecyl sulphate, pH7.5. The proteolytic reaction is initiated by the addition of 50 μM flourogenic peptide substrate and allowed to progress for 15 minutes at 37° C. The reaction is terminated by the addition of 100 μL of 100 mM acetate buffer, pH4.0. The rate of proteolysis is directly proportional to the amount of liberated aminomethylcoumarin which is measured by fluorescent spectroscopy (EX 370 nm, EM 430 nm).
In the case of `CC(C)C[C@@H](NC(=O)C(=O)Cc1c[nH]c2ccccc12)C(=O)N[C@H](CC(C)C)C(=O)NCc1ccccc1` [Compound 3], the half-maximal inhibitory concentration (IC50) is over 19.3 µM.

As for `CC(C)CC(NC(=O)C(=O)Cc1c[nH]c2ccccc12)C(=O)NC(CC(C)C)C(=O)NCC(=O)O` (centres unmarked) [Compound 5], the 50% inhibitory concentration (IC50) was over 20.6 µM. As to `CC(C)CC(NC(=O)C(=O)Cc1ccccc1)C(=O)NC(CC(C)C)C(=O)NCC(=O)O` (centres unmarked) [Compound 6], the “IC50 for the inhibition of the chymotrypsin-like activity of 20S proteasome” value (from here on “IC50 for the inhibition”) is over 10 µg/mL. The same measure, in the same setting: the same measure for `CC(C)CC(NC(=O)C(=O)Cc1ccccc1)C(=O)NC(CC(C)C)C(=O)NCC(=O)NCc1ccccc1` (centres unmarked) [Compound 7]: over 10 µg/mL; for `CC(C)CC(NC(=O)C(=O)c1c[nH]c2ccccc12)C(=O)NC(CC(C)C)C(=O)NCC(=O)NCc1ccccc1` (centres unmarked) [Compound 8]: over 10 µg/mL; for `CC(C)CC(NC(=O)C(=O)Cc1c[nH]c2ccccc12)C(=O)NC(CC(C)C)C(=O)NCC(=O)NCc1ccccc1` (centres unmarked) [Compound 9]: over 10 µg/mL. Same read-out and setting: the same measure for `CC(C)CC(NC(=O)C(CC(C)C)NC(=O)C(=O)c1c[nH]c2ccccc12)C(=O)O` (centres unmarked) [Compound 10]: over 10 µg/mL; for `CC(C)CC(NC(=O)C(CC(C)C)NC(=O)C(=O)c1ccccc1)C(=O)O` (centres unmarked) [Compound 11]: over 10 µg/mL; for `CC(C)CC(NC(=O)C(=O)c1ccccc1)C(=O)NC(CC(C)C)C(=O)NCC(=O)O` (centres unmarked) [Compound 12]: over 10 µg/mL. Same read-out and setting: the same measure for `CC(C)CC(NC(=O)C(=O)Cc1ccccc1)C(=O)NC(CC(C)C)C(=O)NC(Cc1ccccc1)C(=O)O` (centres unmarked) [Compound 13]: over 10 µg/mL. With `CC(C)CC(NC(=O)C(=O)c1c[nH]c2ccccc12)C(=O)NC(CC(C)C)C(=O)NC(Cc1ccccc1)C(=O)O` (centres unmarked) [Compound 14], the “IC50 for the inhibition” value is over 10 µg/mL.

As to `CC(C)C[C@H](NC(=O)C(=O)Cc1c[nH]c2ccccc12)C(=O)N[C@H](CC(C)C)C(=O)N[C@H](C(=O)O)C(C)C` [Compound 17], the IC50 was over 18.9 µM.

`CC(C)C[C@H](NC(=O)[C@@H](CC(C)C)NC(=O)[C@H](CC(C)C)NC(=O)C(=O)Cc1c[nH]c2ccccc12)C(=O)O` [Compound 18] showed an IC50 of over 18.4 µM. In the case of `CCC(C)C(NC(=O)C(CC(C)C)NC(=O)C(CC(C)C)NC(=O)C(=O)Cc1c[nH]c2ccccc12)C(=O)O` (centres unmarked) [Compound 19], the “IC50 for the inhibition” value is over 10 µg/mL. On the same count and under the same terms, the same measure for `CC(C)CC(NC(=O)C(=O)Cc1c[nH]c2ccccc12)C(=O)NC(CC(C)C)C(=O)NC(C)C(=O)O` (centres unmarked) [Compound 20]: over 10 µg/mL; for `CC(C)CC(NC(=O)C(=O)Cc1c[nH]c2ccccc12)C(=O)NC(CC(C)C)C(=O)NC(Cc1ccc(O)cc1)C(=O)O` (centres unmarked) [Compound 21]: over 10 µg/mL; for `CC(C)CC(NC(=O)C(CC(C)C)NC(=O)C(CC(C)C)NC(=O)C(=O)Cc1c[nH]c2ccccc12)C(=O)O` (centres unmarked) [Compound 22]: over 10 µg/mL. Take `CC(C)C[C@H](NC(=O)[C@@H](CC(C)C)NC(=O)[C@@H](CC(C)C)NC(=O)C(=O)Cc1c[nH]c2ccccc12)C(=O)O` [Compound 23]: the IC50 is over 18.4 µM. For `CCC(C)C(NC(=O)C(CC(C)C)NC(=O)C(CC(C)C)NC(=O)C(=O)Cc1c[nH]c2ccccc12)C(=O)O` (centres unmarked) [Compound 24], the “IC50 for the inhibition” value is over 10 µg/mL. Same read-out and setting: the same measure for `CC(C)CC(NC(=O)C(=O)Cc1c[nH]c2ccccc12)C(=O)NC(CC(C)C)C(=O)NC(C)C(=O)O` (centres unmarked) [Compound 25]: over 10 µg/mL; for `CC(C)CC(NC(=O)C(=O)Cc1c[nH]c2ccccc12)C(=O)NC(CC(C)C)C(=O)NC(Cc1ccc(O)cc1)C(=O)O` (centres unmarked) [Compound 26]: over 10 µg/mL; for `CC(C)CC(NC(=O)C(=O)Cc1c[nH]c2ccccc12)C(=O)NC(CC(C)C)C(=O)NC(C(=O)O)C(C)C` (centres unmarked) [Compound 27]: over 10 µg/mL. Same read-out and setting: the same measure for `CC(C)CC(NC(=O)C(CC(C)C)NC(=O)C(CC(C)C)NC(=O)C(=O)Cc1c[nH]c2ccccc12)C(=O)O` (centres unmarked) [Compound 28]: over 10 µg/mL; for `CCC(C)C(NC(=O)C(CC(C)C)NC(=O)C(CC(C)C)NC(=O)C(=O)Cc1c[nH]c2ccccc12)C(=O)O` (centres unmarked) [Compound 29]: over 10 µg/mL. As for `CC(C)CC(NC(=O)C(=O)Cc1c[nH]c2ccccc12)C(=O)NC(CC(C)C)C(=O)NC(C)C(=O)O` (centres unmarked) [Compound 30], the IC50 is over 20 µM.

Take `CC(C)CC(NC(=O)C(=O)Cc1c[nH]c2ccccc12)C(=O)NC(CC(C)C)C(=O)NC(Cc1ccc(O)cc1)C(=O)O` (centres unmarked) [Compound 31]: the “IC50 for the inhibition” value was over 10 µg/mL. Still for that read-out and setting: the value for `CC(C)CC(NC(=O)C(=O)Cc1c[nH]c2ccccc12)C(=O)NC(CC(C)C)C(=O)NC(C(=O)O)C(C)C` (centres unmarked) [Compound 32] was over 10 µg/mL; that for `CC(C)CC(NC(=O)C(CC(C)C)NC(=O)C(CC(C)C)NC(=O)C(=O)Cc1c[nH]c2ccccc12)C(=O)O` (centres unmarked) [Compound 33] was over 10 µg/mL. Regarding `CCC(C)C(NC(=O)C(CC(C)C)NC(=O)C(CC(C)C)NC(=O)C(=O)Cc1c[nH]c2ccccc12)C(=O)O` (centres unmarked) [Compound 34], the “IC50 for the inhibition” value was over 10 µg/mL. The same measure, in the same setting: the value for `CC(C)CC(NC(=O)C(=O)Cc1c[nH]c2ccccc12)C(=O)NC(CC(C)C)C(=O)NC(C)C(=O)O` (centres unmarked) [Compound 35] was over 10 µg/mL.

On to `CC(C)CC(NC(=O)C(=O)Cc1c[nH]c2ccccc12)C(=O)NC(CC(C)C)C(=O)NC(Cc1ccc(O)cc1)C(=O)O` (centres unmarked) [Compound 36], for which the “IC50 for the inhibition” value was over 10 µg/mL.

In the case of `CC(C)CC(NC(=O)CNC(=O)C(=O)Cc1c[nH]c2ccccc12)C(=O)NC(C(=O)O)C(C)C` (centres unmarked) [Compound 37], the “IC50 for the inhibition” value was over 10 µg/mL.

On to `CC(C)CC(NC(=O)CCNC(=O)C(=O)Cc1c[nH]c2ccccc12)C(=O)NC(C(=O)O)C(C)C` (centres unmarked) [Compound 38], for which the “IC50 for the inhibition” value was over 10 µg/mL.

Regarding `CCCCC(NC(=O)C(=O)Cc1c[nH]c2ccccc12)C(=O)NC(CC(C)C)C(=O)NC(C(=O)O)C(C)C` (centres unmarked) [Compound 39], the “IC50 for the inhibition” value was over 10 µg/mL. Compound `CC(C)C[C@@H](NC(=O)[C@H](Cc1ccccc1)NC(=O)C(=O)Cc1c[nH]c2ccccc12)C(=O)N[C@H](C(=O)O)C(C)C` [Compound 40] returned an IC50 of over 17.8 µM. For the compound `CC(C)CC(NC(=O)C(NC(=O)C(=O)Cc1c[nH]c2ccccc12)C(C)O)C(=O)NC(C(=O)O)C(C)C` (centres unmarked) [Compound 41], the “IC50 for the inhibition” value is over 10 µg/mL. Still for that read-out and setting: the same measure for `CC(C)CC(NC(=O)C(C)NC(=O)C(=O)Cc1c[nH]c2ccccc12)C(=O)NC(C(=O)O)C(C)C` (centres unmarked) [Compound 42]: over 10 µg/mL; for `CC(C)CC(NC(=O)C(CC(=O)O)NC(=O)C(=O)Cc1c[nH]c2ccccc12)C(=O)NC(C(=O)O)C(C)C` (centres unmarked) [Compound 43]: over 10 µg/mL; for `CC(C)CC(NC(=O)C(NC(=O)C(=O)Cc1c[nH]c2ccccc12)C(C)C)C(=O)NC(C(=O)O)C(C)C` (centres unmarked) [Compound 44]: over 10 µg/mL. The same measure, in the same setting: the value for `CCCC(NC(=O)C(=O)Cc1c[nH]c2ccccc12)C(=O)NC(CC(C)C)C(=O)NC(C(=O)O)C(C)C` (centres unmarked) [Compound 45] was over 10 µg/mL. For the compound `CC(C)CC(NC(=O)C(Cc1ccc(O)cc1)NC(=O)C(=O)Cc1c[nH]c2ccccc12)C(=O)NC(C(=O)O)C(C)C` (centres unmarked) [Compound 46], the “IC50 for the inhibition” value was over 10 µg/mL. Take `CCC(C)C(NC(=O)C(=O)Cc1c[nH]c2ccccc12)C(=O)NC(CC(C)C)C(=O)NC(C(=O)O)C(C)C` (centres unmarked) [Compound 47]: the “IC50 for the inhibition” value is over 10 µg/mL. Same read-out and setting: the value for `CC(C)CC(NC(=O)C(CC1CCCCC1)NC(=O)C(=O)Cc1c[nH]c2ccccc12)C(=O)NC(C(=O)O)C(C)C` (centres unmarked) [Compound 48] was over 10 µg/mL; that for `CC(C)CC(NC(=O)C(Cc1cccnc1)NC(=O)C(=O)Cc1c[nH]c2ccccc12)C(=O)NC(C(=O)O)C(C)C` (centres unmarked) [Compound 49] was over 10 µg/mL; that for `CC(C)CC(NC(=O)C(Cc1ccc2ccccc2c1)NC(=O)C(=O)Cc1c[nH]c2ccccc12)C(=O)NC(C(=O)O)C(C)C` (centres unmarked) [Compound 50] was over 10 µg/mL. Compound `CC(C)C[C@@H](NC(=O)[C@H](Cc1ccc(-c2ccccc2)cc1)NC(=O)C(=O)Cc1c[nH]c2ccccc12)C(=O)N[C@H](C(=O)O)C(C)C` [Compound 51] had an IC50 of over 15.7 µM.

With `CC(C)CC(NC(=O)CNC(=O)C(=O)Cc1c[nH]c2ccccc12)C(=O)NCC(=O)O` (centres unmarked) [Compound 52], the “IC50 for the inhibition” value is over 10 µg/mL.

What is called IC50 is the concentration needed to halve the response being measured. Lower therefore signals inhibition by little substance.
